Test results taken from patent US20250332198A1, “TARGETED ELIMINATION OF SENESCENT CELLS BY GAMMA-DELTA T CELLS” (SENS RESEARCH FOUNDATION, priority 2022, published 2025).

Tests used:
platelet = details: risk of causing thrombocytopenia; cited from earlier work
macrophages = details: as reported; cited from earlier work
[1] = molecular target: T1, 3-hydroxy-3-methylglutaryl-CoA reductase (HMGCR) (Homo sapiens, UniProt P04035); assay: Mevalonate pathway inhibition in SC, effect on cytotoxicity by Vδ2 T cells; format: cell-based; details: SC treated with the HMGCR inhibitor
T1 construct: endogenous in cells; host or cells: senescent cells (SC)
T1 sequence (P04035 1-888): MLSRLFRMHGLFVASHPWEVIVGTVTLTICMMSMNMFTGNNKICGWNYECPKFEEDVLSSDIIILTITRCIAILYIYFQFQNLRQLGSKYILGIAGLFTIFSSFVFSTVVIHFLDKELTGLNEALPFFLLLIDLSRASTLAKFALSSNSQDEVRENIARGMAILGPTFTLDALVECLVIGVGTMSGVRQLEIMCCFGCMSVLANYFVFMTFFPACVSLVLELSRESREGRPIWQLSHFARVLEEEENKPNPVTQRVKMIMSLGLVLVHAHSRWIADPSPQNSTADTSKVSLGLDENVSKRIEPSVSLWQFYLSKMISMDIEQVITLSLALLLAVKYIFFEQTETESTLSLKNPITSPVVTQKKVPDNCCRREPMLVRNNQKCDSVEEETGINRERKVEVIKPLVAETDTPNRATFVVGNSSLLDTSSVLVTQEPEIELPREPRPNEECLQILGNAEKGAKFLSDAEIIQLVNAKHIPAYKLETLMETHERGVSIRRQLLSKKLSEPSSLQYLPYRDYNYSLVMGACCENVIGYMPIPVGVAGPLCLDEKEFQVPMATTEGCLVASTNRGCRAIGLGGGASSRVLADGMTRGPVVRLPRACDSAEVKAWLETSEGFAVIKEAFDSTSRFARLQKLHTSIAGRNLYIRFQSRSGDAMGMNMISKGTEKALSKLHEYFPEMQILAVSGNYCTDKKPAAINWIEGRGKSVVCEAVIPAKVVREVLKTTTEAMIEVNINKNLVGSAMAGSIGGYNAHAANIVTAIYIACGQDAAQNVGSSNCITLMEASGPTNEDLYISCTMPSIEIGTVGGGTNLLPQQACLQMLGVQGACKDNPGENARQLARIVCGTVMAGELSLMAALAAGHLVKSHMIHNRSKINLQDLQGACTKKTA
Excerpt: NKG2D recognizes target cells based on their surface expression of ligands such as MICA. […] Briefly, phosphoantigens such as IPP (an intermediate metabolite of mevalonate pathway) bind to the intracellular domain of BTN3A, leading to a conformational change in the extracellular domain that is recognized by γδTCR. […] To determine the role of mevalonate pathway, we inhibited the rate-limiting enzyme 3-hydroxy-3-methylglutaryl-CoA reductase (HMGCR) with mevastain in SC and tested the effect on cytotoxicity by Vδ2 T cells.

SMILES	platelet toxicity (platelet)	effect on macrophages (macrophages)	effect on Vδ2 T cell-mediated cytotoxicity toward SC [1]	effect on Vδ2 T cell-mediated cytotoxicity toward SC ([1]; listed as mevastain)
CC1(C)CCC(c2ccc(Cl)cc2)=C(CN2CCN(c3ccc(C(=O)NS(=O)(=O)c4ccc(N[C@H](CCN5CCOCC5)CSc5ccccc5)c(S(=O)(=O)C(F)(F)F)c4)cc3)CC2)C1 [ABT263, navitoclax]	dose-limiting platelet toxicity	destroy macrophages		
O=c1c(O)c(-c2ccc(O)c(O)c2)oc2cc(O)ccc12 [fisetin]		destroy macrophages		
CC[C@H](C)C(=O)O[C@H]1CCC=C2C=C[C@H](C)[C@H](CC[C@@H]3C[C@@H](O)CC(=O)O3)[C@H]21 [mevastatin]			resistant to gamma delta T cells	significantly reduced Vδ2 T cell-mediated cytotoxicity
